Article PMC12860872, “Preclinical evaluation of DOTAGA.Glu.(FAPI)2 and DO3A.Glu.(FAPI)2 as theranostics with human dosimetry extrapolation to lutetium-177 and terbium-161 analogs” (European Journal of Nuclear Medicine and Molecular Imaging, 2025)

System: PC3-mice
Test: Biodistribution in PC3-mice incl. blocking
Assay type: in vivo, mouse
Settings: PC3-mice
Description: Male athymic Balb/C nude mice (6 weeks/20–25 g) were implanted with PC3 cells (3.5 × 10^6/100 µL PBS) into their right shoulder to develop tumors. The animals were used for biodistribution and PET/SPECT/CT imaging studies, once tumors reached 250–300 mm^3.
All mice were euthanized with intraperitoneal injection of pentobarbital (150 mg/kg), and selected organs were dissected, weighed, and measured for radioactivity using a gamma-counter. Results are expressed as % injected activity per gram tissue (% I.A./g), presented as mean ± SD (n = 3–4).

[1] = Blocking 4h (20 nmol unlabeled precursor)

N#C[C@@H]1CC(F)(F)CN1C(=O)CNC(=O)c1ccnc2ccc(OCCCCNC(=O)CC[C@H](NC(=O)CN3CCN(CC(=O)[O-])CCN(CC(=O)[O-])CCN(CC(=O)[O-])CC3)C(=O)NCCCCOc3ccc4nccc(C(=O)NCC(=O)N5CC(F)(F)C[C@H]5C#N)c4c3)cc12.[177Lu+3] [[^177Lu]Lu-DO3A.Glu.(FAPI)2]
Uptake in Adrenal (4 h p.i.): 3.7±1 %I.A./g | Uptake in Blood (4 h p.i.): 2.3±0.3 %I.A./g | Uptake in Bone (4 h p.i.): 5.2±0.2 %I.A./g | Uptake in Heart (4 h p.i.): 1.2±0.5 %I.A./g | Uptake in Intestine (4 h p.i.): 0.9±0.4 %I.A./g | Uptake in Kidney (4 h p.i.): 1.5±0.4 %I.A./g | Uptake in Liver (4 h p.i.): 1.7±0.1 %I.A./g | Uptake in Lung (4 h p.i.): 1.6±0.02 %I.A./g | Uptake in Muscle (4 h p.i.): 1.9±0.3 %I.A./g | Uptake in Pancreas (4 h p.i.): 2.3±0.4 %I.A./g | Uptake in Salivary glands (4 h p.i.): 8.2±1.3 %I.A./g | Uptake in Spleen (4 h p.i.): 1.2±0.1 %I.A./g | Uptake in Stomach (4 h p.i.): 0.9±0.2 %I.A./g | Uptake in Tumor (4 h p.i.): 15±1.3 %I.A./g | Uptake in Adrenal (24 h p.i.): 1.5±0.2 %I.A./g | Uptake in Blood (24 h p.i.): 0.9±0.1 %I.A./g | Uptake in Bone (24 h p.i.): 2±0.1 %I.A./g | Uptake in Gallbladder (24 h p.i.): 1.3±0.03 %I.A./g | Uptake in Heart (24 h p.i.): 0.4±0.03 %I.A./g | Uptake in Intestine (24 h p.i.): 0.4±0.1 %I.A./g | Uptake in Kidney (24 h p.i.): 0.9±0.1 %I.A./g | Uptake in Liver (24 h p.i.): 1.7±0.2 %I.A./g | Uptake in Lung (24 h p.i.): 0.6±0.03 %I.A./g | Uptake in Muscle (24 h p.i.): 1±0.1 %I.A./g | Uptake in Pancreas (24 h p.i.): 1±0.05 %I.A./g | Uptake in Salivary glands (24 h p.i.): 3.9±0.3 %I.A./g | Uptake in Spleen (24 h p.i.): 0.8±0.05 %I.A./g | Uptake in Stomach (24 h p.i.): 0.4±0.03 %I.A./g | Uptake in Tumor (24 h p.i.): 7.5±1.2 %I.A./g | Uptake in Adrenal (48 h p.i.): 1.1±0.5 %I.A./g | Uptake in Blood (48 h p.i.): 0.2±0.03 %I.A./g | Uptake in Bone (48 h p.i.): 1±0.1 %I.A./g | Uptake in Gallbladder (48 h p.i.): 0.6±0.1 %I.A./g | Uptake in Heart (48 h p.i.): 0.1±0.01 %I.A./g | Uptake in Intestine (48 h p.i.): 0.1±0.04 %I.A./g | Uptake in Kidney (48 h p.i.): 0.4±0.1 %I.A./g | Uptake in Liver (48 h p.i.): 1.1±0.2 %I.A./g | Uptake in Lung (48 h p.i.): 0.2±0.1 %I.A./g | Uptake in Muscle (48 h p.i.): 0.4±0.04 %I.A./g | Uptake in Pancreas (48 h p.i.): 0.3±0.01 %I.A./g | Uptake in Salivary glands (48 h p.i.): 1.1±0.3 %I.A./g | Uptake in Spleen (48 h p.i.): 0.5±0.05 %I.A./g | Uptake in Stomach (48 h p.i.): 0.2±0.05 %I.A./g | Uptake in Tumor (48 h p.i.): 3.1 ± 0.5 %I.A./g | Uptake in Adrenal (72 h p.i.): 0.3±0.1 %I.A./g | Uptake in Blood (72 h p.i.): 0.06±0 %I.A./g | Uptake in Bone (72 h p.i.): 0.4±0.005 %I.A./g | Uptake in Gallbladder (72 h p.i.): 0.4±0.2 %I.A./g | Uptake in Heart (72 h p.i.): 0.04±0.01 %I.A./g | Uptake in Intestine (72 h p.i.): 0.05±0.01 %I.A./g | Uptake in Kidney (72 h p.i.): 0.2±0.02 %I.A./g | Uptake in Liver (72 h p.i.): 0.8±0.1 %I.A./g | Uptake in Lung (72 h p.i.): 0.1±0.01 %I.A./g | Uptake in Muscle (72 h p.i.): 0.1±0.01 %I.A./g | Uptake in Pancreas (72 h p.i.): 0.1±0.02 %I.A./g | Uptake in Salivary glands (72 h p.i.): 0.3±0.1 %I.A./g | Uptake in Spleen (72 h p.i.): 0.3±0.04 %I.A./g | Uptake in Stomach (72 h p.i.): 0.05±0 %I.A./g | Uptake in Tumor (72 h p.i.): 1.4±0.1 %I.A./g | Uptake in Adrenal (96 h p.i.): 0.2±0.1 %I.A./g | Uptake in Blood (96 h p.i.): 0.02±0.01 %I.A./g | Uptake in Bone (96 h p.i.): 0.3±0.1 %I.A./g | Uptake in Gallbladder (96 h p.i.): 0.1±0.02 %I.A./g | Uptake in Heart (96 h p.i.): 0.02±0.01 %I.A./g | Uptake in Intestine (96 h p.i.): 0.02±0.01 %I.A./g | Uptake in Kidney (96 h p.i.): 0.1±0.01 %I.A./g | Uptake in Liver (96 h p.i.): 0.7±0.1 %I.A./g | Uptake in Lung (96 h p.i.): 0.1±0.1 %I.A./g | Uptake in Muscle (96 h p.i.): 0.04±0 %I.A./g | Uptake in Pancreas (96 h p.i.): 0.03±0.01 %I.A./g | Uptake in Salivary glands (96 h p.i.): 0.1±0.03 %I.A./g | Uptake in Spleen (96 h p.i.): 0.4±0.05 %I.A./g | Uptake in Stomach (96 h p.i.): 0.03±0.01 %I.A./g | Uptake in Tumor (96 h p.i.): 1±0.03 %I.A./g | Uptake in Adrenal [1]: 0.3±0.04 %I.A./g | Uptake in Blood [1]: 0.2±0.04 %I.A./g | Uptake in Bone [1]: 0.4±0.1 %I.A./g | Uptake in Heart [1]: 0.1±0.01 %I.A./g | Uptake in Intestine [1]: 0.4±0.02 %I.A./g | Uptake in Kidney [1]: 2.8±0.2 %I.A./g | Uptake in Liver [1]: 1.1±0.01 %I.A./g | Uptake in Lung [1]: 0.5±0.1 %I.A./g | Uptake in Muscle [1]: 0.1±0.01 %I.A./g | Uptake in Pancreas [1]: 0.1±0.01 %I.A./g | Uptake in Salivary glands [1]: 0.3±0.01 %I.A./g | Uptake in Spleen [1]: 0.4±0.03 %I.A./g | Uptake in Stomach [1]: 0.2±0.1 %I.A./g | Uptake in Tumor [1]: 1.1±0.4 %I.A./g | tumor uptake (at 1 h p.i. as printed): ~ 15 %I.A./g | drop of tumor uptake (washed-out) (at 24 h vs 4 h p.i.): ~ 50%
